Source: US9605013B2, “Derivatives of hemin with antibacterial and antiviral activity” (OBSCHESTVO S OGRANICHENNOI OTVETSTVENNOSTIYU …, priority 2011, dated 2017)

Assays:
Assay in all cases: Antibacterial activity, serial dilutions in liquid MH medium
Format in all cases: cell-based
[1] = tested on: Micrococcus luteus BKM Ac-2230; settings: for MIC: MH medium, 20 h, 37° C., 100% growth inhibition; for MBC: no colonies on agarized MH medium
In short: (§1)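 Broth microdilution in Mueller-Hinton medium at 37 °C with stirring, using exponential-phase cultures seeded at 5×10^4 to 1×10^5 cells/mL with twofold serial compound dilutions. Growth inhibition read as A595 after 20 h, corrected for compound absorbance; MIC and MBC determined.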

[2] = tested on: Bacillus subtilis BKM B-501; settings: for MIC: MH medium, 20 h, 37° C., 100% growth inhibition; for MBC: no colonies on agarized MH medium
In short: as §1

[3] = tested on: Staphylococcus aureus 209P; settings: for MBC: no colonies on agarized MH medium
In short: as §1

| Molecule | MIC [1] | MBC [1] | MIC [2] | MBC [2] | MBC [3] | MIC ([3]; MH medium, 20 h, 37° C., 100% growth inhibition) |
| --- | --- | --- | --- | --- | --- | --- |
| 6,7-bis-(Amide N^α-Glycyl)-Protohemin (IX) [IV] | 0.8 µM | 0.8 µM | 1.6 µM | 1.6 µM | – | – |
| 6,7-bis-[(Diamide N^α-L-Arginyl)-L-glutamyl]-Protohemin (IX) | 0.8 µM | 0.8 µM | 1.6 µM | 1.6 µM | 25 µM | – |
| C=CC1=C(C)c2cc3[n-]c(cc4[n-]c(cc5nc(cc1n2)C(C)=C5C=C)c(C)c4CCC(=O)N[C@@H](CCCNC(=N)N)C(N)=O)c(CCC(=O)N[C@@H](CCCNC(=N)N)C(N)=O)c3C.[Cl-].[Fe+3] [II, 6,7-bis-(Amide N^α-Arginyl)-Protohemin (IX)] | 0.8 µM | 0.8 µM | 0.8 µM | 0.8 µM | 6.3 µM | – |
| C=CC1=C(C)c2cc3[n-]c(cc4[n-]c(cc5nc(cc1n2)C(C)=C5C=C)c(C)c4CCC(=O)N[C@@H](CO)C(N)=O)c(CCC(=O)N[C@@H](CO)C(N)=O)c3C.[Cl-].[Fe+3] [V, 6,7-bis-(Amide N^α-Seryl)-Protohemin (IX)] | 0.8 µM | 0.8 µM | 1.6 µM | 1.6 µM | 12.5 µM | – |
| C=CC1=C(C)c2cc3[n-]c(cc4[n-]c(cc5nc(cc1n2)C(C)=C5C=C)c(C)c4CCC(=O)N[C@@H](CO)C(=O)O)c(CCC(=O)N[C@@H](CO)C(=O)O)c3C.[Cl-].[Fe+3] [VI, 6,7-bis-(N^α-Seryl]-Protohemin (IX)] | 6.3 µM | 25 µM | 12.5 µM | 25 µM | – | 50 µM |
